Assay results from patent US20240208934A1, “ULK1/2 INHIBITORS AND THEIR USE THEREOF” (LifeArc, priority 2021, published 2024).
Values belong to the compound of their own block, whether it stands above or below them.

System: ULK
Test: ULK radiometric assay (33P incorporation onto MBP substrate, glass fiber capture filter)
Settings: ULK Biochemical activity; 20 uM ATP, 0.2 mg/mL MBP; averages of at least two independent experiments
Protocol: ULK activity was measured using a radiometric assay, to measure the incorporation of radiolabelled ^33P onto MBP substrate using a glass fiber capture filter method. Reaction conditions were 0.2 mg/mL MBP, 20 uM ATP (0.25 μCi/well), 50 mM Tris HCl, pH7.5, 10 mM MgCl2, 0.1% beta-mercaptoethanol, 0.1 mM EGTA, 0.01% BSA. Ten point Half log Compound dilution series were prepared in 100% DMSO and added to the reaction to give final assay concentration of 10% DMSO. Compounds were tested in duplicate and values normalized to 10% DMSO only controls. The data were fitted to a four parameter fit equation and the IC50 values shown are averages of at least two independent experiments.

IC50: 200 to 1000 nM
Structure (SMILES): CN(C)CCOc1ccc(Cl)c(Nc2ncc(C(F)(F)F)c(NCCCN3CCCCC3=O)n2)c1 [Example 58, 1-[3-[[2-[2-Chloro-5-[2-(dimethylamino)ethoxy]anilino]-5-(trifluoromethyl)pyrimidin-4-yl]amino]propyl]piperidin-2-one]

IC50: ≥ 1000 nM
Structure (SMILES): COc1cc2c(cc1Nc1ncc(C(F)(F)F)c(NC3CCN(S(C)(=O)=O)CC3)n1)CNCC2 [Example 72, N2-(6-methoxy-1,2,3,4-tetrahydroisoquinolin-7-yl)-N4-(1-methylsulfonyl-4-piperidyl)-5-(trifluoromethyl)pyrimidine-2,4-diamine]

IC50: 200 to 1000 nM
Structure (SMILES): FC(F)(F)c1cnc(Nc2ccc(N3CCOCC3)cc2)nc1NCC1CNCCO1 (stereo not drawn) [Example 90, N2-(4-morpholinophenyl)-N4-(morpholin-2-ylmethyl)-5-(trifluoromethyl)pyrimidine-2,4-diamine]

IC50: < 200 nM
Structure (SMILES): COc1nn(CCN(C)C)cc1Nc1ncc(C(F)(F)F)c(NCCCN2CCCCC2=O)n1 [Example 3, 1-(3-((2-((1-(2-(Dimethylamino)ethyl)-3-methoxy-1H-pyrazol-4-yl)amino)-5-(trifluoromethyl)pyrimidin-4-yl)amino)propyl) piperidin-2-one]

IC50: 200 to 1000 nM
Structure (SMILES): O=C1CCCCN1CCCNc1nc(Nc2cc(O)ccc2Cl)ncc1C(F)(F)F [Example 57, 1-[3-[[2-(2-Chloro-5-hydroxy-anilino)-5-(trifluoromethyl)pyrimidin-4-yl]amino]propyl]piperidin-2-one]

IC50: < 200 nM
Structure (SMILES): O=C(NCCCNc1nc(Nc2ccc3c(c2)CCNC3)ncc1C(F)(F)F)C1CCC1 [Example 62, N-(3-((2-((1,2,3,4-tetrahydroisoquinolin-6-yl)amino)-5-(trifluoromethyl)pyrimidin-4-yl)amino)propyl)cyclobutanecarboxamide]

IC50: 200 to 1000 nM
Structure (SMILES): CCOc1nn(C)cc1Nc1ncc(C(F)(F)F)c(NCCCN2CCCCC2=O)n1 [Example 46, 1-[3-[[2-[(3-Ethoxy-1-methyl-pyrazol-4-yl)amino]-5-(trifluoromethyl)pyrimidin-4-yl]amino]propyl]piperidin-2-one]

IC50: ≥ 1000 nM
Structure (SMILES): COCc1ccc(Nc2ncc(C(F)(F)F)c(NCCCN3CCCCC3=O)n2)c(OC)c1 [Example 34, 1-[3-[[2-[2-Methoxy-4-(methoxymethyl)anilino]-5-(trifluoromethyl)pyrimidin-4-yl]amino]propyl]piperidin-2-one]

IC50: ≥ 1000 nM
Structure (SMILES): COc1cc2c(cc1Nc1ncc(C(F)(F)F)c(NCCCN3CCCCC3=O)n1)C(=O)NCC2 [Example 33, 6-Methoxy-7-[[4-[3-(2-oxo-1-piperidyl)propylamino]-5-(trifluoromethyl)pyrimidin-2-yl]amino]-3,4-dihydro-2H-isoquinolin-1-one]

IC50: ≥ 1000 nM
Structure (SMILES): COc1cc(COC(C)C)ccc1Nc1ncc(C(F)(F)F)c(NCCCN2CCCCC2=O)n1 [Example 35, 1-[3-[[2-[4-(Isopropoxymethyl)-2-methoxy-anilino]-5-(trifluoromethyl)pyrimidin-4-yl]amino]propyl]piperidin-2-one]

IC50: ≥ 1000 nM
Structure (SMILES): Fc1cccc(Nc2ncc(C(F)(F)F)c(NCCCN3CCCC3)n2)c1 [Example 5, N2-(3-fluorophenyl)-N4-(3-(pyrrolidin-1-yl)propyl)-5-(trifluoromethyl)pyrimidine-2,4-diamine]

IC50: < 200 nM
Structure (SMILES): COc1cc2c(cc1Nc1ncc(C(F)(F)F)c(NCCCN3CCCC3=O)n1)CNCC2 [Example 81, 1-[3-[[2-[(6-Methoxy-1,2,3,4-tetrahydroisoquinolin-7-yl)amino]-5-(trifluoromethyl)pyrimidin-4-yl]amino]propyl]pyrrolidin-2-one]

IC50: 200 to 1000 nM
Structure (SMILES): Cn1cc(Nc2ncc(C(F)(F)F)c(NCCCN3CCCCC3=O)n2)c(OCC(F)(F)F)n1 [Example 48, 1-[3-[[2-[[1-Methyl-3-(2,2,2-trifluoroethoxy)pyrazol-4-yl]amino]-5-(trifluoromethyl)pyrimidin-4-yl]amino]propyl]piperidin-2-one]

IC50: ≥ 1000 nM
Structure (SMILES): COc1ccc(CO)cc1Nc1ncc(C(F)(F)F)c(NCCCN2CCCCC2=O)n1 [Example 47, 1-[3-[[2-[5-(Hydroxymethyl)-2-methoxy-anilino]-5-(trifluoromethyl)pyrimidin-4-yl]amino]propyl]piperidin-2-one]

IC50: ≥ 1000 nM
Structure (SMILES): COc1nn(CCN2CCOCC2)cc1Nc1ncc(C(F)(F)F)c(NCCCN2CCCCC2=O)n1 [Example 53, 1-[3-[[2-[[3-Methoxy-1-(2-morpholinoethyl)pyrazol-4-yl]amino]-5-(trifluoromethyl)pyrimidin-4-yl]amino]propyl]piperidin-2-one]

IC50: < 200 nM
Structure (SMILES): O=C(CCNc1nc(Nc2ccc3c(c2)CCNC3)ncc1C(F)(F)F)N1CCOCC1 [Example 67, 1-Morpholino-3-[[2-(1,2,3,4-tetrahydroisoquinolin-6-ylamino)-5-(trifluoromethyl)pyrimidin-4-yl]amino]propan-1-one]

IC50: < 200 nM
Structure (SMILES): CN1CCc2cc(Nc3ncc(C(F)(F)F)c(NCCCN4CCCC4=O)n3)ccc2C1 [Example 76, 1-[3-[[2-[(2-Methyl-3,4-dihydro-1H-isoquinolin-6-yl)amino]-5-(trifluoromethyl)pyrimidin-4-yl]amino]propyl]pyrrolidin-2-one]

IC50: ≥ 1000 nM
Structure (SMILES): COc1cc(C(=O)O)ccc1Nc1ncc(C(F)(F)F)c(NCCCN2CCCCC2=O)n1 [Example 36, 3-Methoxy-4-[[4-[3-(2-oxo-1-piperidyl)propylamino]-5-(trifluoromethyl)pyrimidin-2-yl]amino]benzoic acid]

IC50: ≥ 1000 nM
Structure (SMILES): COc1ccccc1Nc1ncc(C(F)(F)F)c(NCCCN2CCCCC2=O)n1 [Example 30, 1-[3-[[2-(2-Methoxyanilino)-5-(trifluoromethyl)pyrimidin-4-yl]amino]propyl]piperidin-2-one]

More lines, now with the values behind:

Structure (SMILES): O=C1CCCCN1CCCNc1nc(Nc2cc(CN3CCOCC3)ccc2Cl)ncc1C(F)(F)F [Example 55, 1-[3-[[2-[2-Chloro-5-(morpholinomethyl)anilino]-5-(trifluoromethyl)pyrimidin-4-yl]amino]propyl]piperidin-2-one]
IC50: 200 to 1000 nM

Structure (SMILES): CN1CCc2cc(Nc3ncc(C(F)(F)F)c(NCCCN4CCCCC4=O)n3)ccc2C1 [Example 7, 1-(3-((2-((2-Methyl-1,2,3,4-tetrahydroisoquinolin-6-yl)amino)-5-(trifluoromethyl)pyrimidin-4-yl)amino)propyl)piperidin-2-one]
IC50: < 200 nM

Structure (SMILES): CN1CCc2ccc(Nc3ncc(C4CC4)c(NC4CC4)n3)cc2C1 [Example 18, N4,5-dicyclopropyl-N2-(2-methyl-1,2,3,4-tetrahydroisoquinolin-7-yl)pyrimidine-2,4-diamine]
IC50: < 200 nM

Structure (SMILES): COc1cc(C(=O)N2CCOCC2)ccc1Nc1ncc(C(F)(F)F)c(NCCCN2CCCCC2=O)n1 [Example 38, 1-[3-[[2-[2-Methoxy-4-(morpholine-4-carbonyl)anilino]-5-(trifluoromethyl)pyrimidin-4-yl]amino]propyl]piperidin-2-one]
IC50: ≥ 1000 nM

Structure (SMILES): COc1nn(CC(C)(C)O)cc1Nc1ncc(C(F)(F)F)c(NCCCN2CCCCC2=O)n1 [Example 28]
IC50: < 200 nM

Structure (SMILES): COc1ccc(N2CCOCC2)cc1Nc1ncc(C(F)(F)F)c(NCCCN2CCCCC2=O)n1 [Example 32, 1-[3-[[2-(2-Methoxy-5-morpholino-anilino)-5-(trifluoromethyl)pyrimidin-4-yl]amino]propyl]piperidin-2-one]
IC50: ≥ 1000 nM

Structure (SMILES): CN1CCc2ccc(Nc3ncc(C4CC4)c(NCCCN4CCCCC4=O)n3)cc2C1 [Example 12, 1-(3-((5-Cyclopropyl-2-((2-methyl-1,2,3,4-tetrahydroisoquinolin-7-yl)amino)pyrimidin-4-yl)amino)propyl)piperidin-2-one]
IC50: < 200 nM

Structure (SMILES): N[C@H]1CC[C@H](Nc2nc(Nc3ccc(N4CCOCC4)cc3)ncc2C(F)(F)F)CC1 [Example 88, N4-(4-aminocyclohexyl)-N2-(4-morpholinophenyl)-5-(trifluoromethyl)pyrimidine-2,4-diamine]
IC50: 200 to 1000 nM

Structure (SMILES): CC(C)Oc1nn(C)cc1Nc1ncc(C(F)(F)F)c(NCCCN2CCCCC2=O)n1 [Example 49, 1-[3-[[2-[(3-Isopropoxy-1-methyl-pyrazol-4-yl)amino]-5-(trifluoromethyl)pyrimidin-4-yl]amino]propyl]piperidin-2-one]
IC50: ≥ 1000 nM

Structure (SMILES): CNC(=O)c1ccc(Nc2ncc(C(F)(F)F)c(NCCCN3CCCCC3=O)n2)c(OC)c1 [Example 39, 3-Methoxy-N-methyl-4-[[4-[3-(2-oxo-1-piperidyl)propylamino]-5-(trifluoromethyl)pyrimidin-2-yl]amino]benzamide]
IC50: ≥ 1000 nM

Structure (SMILES): FC(F)(F)c1cnc(Nc2ccc(N3CCOCC3)cc2)nc1NCC1CCNC1 (stereo not drawn) [Example 87, N2-(4-morpholinophenyl)-N4-(pyrrolidin-3-ylmethyl)-5-(trifluoromethyl)pyrimidine-2,4-diamine]
IC50: 200 to 1000 nM

Structure (SMILES): O=C1CCCCN1CCCNc1nc(Nc2cc(OCCN3CCOCC3)ccc2Cl)ncc1C(F)(F)F [Example 59, 1-[3-[[2-[2-Chloro-5-(2-morpholinoethoxy)anilino]-5-(trifluoromethyl)pyrimidin-4-yl]amino]propyl]piperidin-2-one]
IC50: 200 to 1000 nM

Structure (SMILES): COc1cc2c(cc1Nc1ncc(C(F)(F)F)c(N3CCC(NC(C)=O)CC3)n1)CNCC2 [Example 71, N-[1-[2-[(6-methoxy-1,2,3,4-tetrahydroisoquinolin-7-yl)amino]-5-(trifluoromethyl)pyrimidin-4-yl]-4-piperidyl]acetamide]
IC50: ≥ 1000 nM

Structure (SMILES): O=C1CCCCN1CCCNc1nc(Nc2cc3c(cc2Cl)CNCC3)ncc1C(F)(F)F [Example 1, 1-(3-(2-(7-Chloro-1,2,3,4-tetrahydroisoquinolin-6-ylamino)-5(trifluoromethyl)pyrimidin-4-ylamino)propyl) piperidin-2-one]
IC50: < 200 nM
